Tested on: S. aureus
Test: Minimal inhibitory concentration (MIC), broth microdilution
Type: cell-based, Staphylococcus aureus
Settings: free drug
Protocol: Bacteria (S. aureus, S. epidermis and E. coli) and Yeast (C. albicans) obtained from ATCC were reconstituted from its lyophilized form according to the manufacturer's protocol. Bacterial samples were cultured in tryptic soy broth (T-SB) or Mueller Hinton broth (M-HB) solution at 37° C., and yeast cells were cultured in YMB at room temperature under constant shaking of 100 rpm. The MICs of the polymers were measured using the broth microdilution method. Briefly, 100 microliters of the respect broth medium containing a polymer at various concentrations (15.6, 31.3, 62.5, 125, 250, 500, 1000, 2000 mg/L) was placed into each well of a 96-well tissue culture plate. An equal volume of microbial suspension (3×10^5 CFU/mL) was added into each well. Prior to mixing, the microbial sample was first inoculated overnight to enter its log growth phase. The concentration of microbial solution was adjusted to give an initial optical density (O.D.) reading of approximately 0.07 at 600 nm wavelength on a microplate reader (TECAN, Switzerland), which corresponds to the concentration of Mc Farland 1 solution (3×10^8 CFU/mL), the microbial solution was further diluted by 1000 times to achieve an initial loading of 3×10^5 CFU/mL. The bacterial samples were kept in an incubator at 37° C. for 18 hours, while the Yeast samples were kept at room temperature for 42 hours under constant shaking of 100 rpm. […]

## CC1(C)S[C@@H]2[C@H](NC(=O)Cc3ccccc3)C(=O)N2[C@H]1C(=O)O [PenG, Penicillin G]
  MIC S. aureus: about 0.01 mg/L

Reference: patent US8926998B2, “Polycarbonates bearing pendant primary amines for medical applications” (International Business Machines Corporation, priority 2012, dated 2015)
